In paper PMC11943913, “Peptides from Harpadon nehereus Bone Ameliorate Sodium Palmitate-Induced HepG2 Lipotoxicity by Regulating Oxidative Stress and Lipid Metabolism” (Marine Drugs, 2025):
“Also recorded” adds a separate entry of the source. Blank lines part the entries; values can stand above or below the compound they belong to.

What was measured:
HepG2 cells [1] = assay: CCK-8 proliferation of HepG2 with PANa; format: cell-based; conditions: 1000 μM PANa, 24 h, CCK-8, p < 0.0001, 100% at 0 μM PANa
Experimental: After incubation, different concentrations (250, 500, 750, 1000 μmol/L) of PANa were added and treated for 24 h. The cell proliferation rates were measured according to the CCK-8 assay instructions.

HepG2 cells [2] = assay: Observation of cell morphology; format: cell-based; conditions: 350 µM PANa 24 h, inverted microscope, 200×
Experimental: Cells grown in culture flasks underwent digestion to create a single-cell suspension that was then diluted with fresh medium before being transferred into six-well plates at a final concentration of 4 × 10^5/well (2 mL/well). Peptides at concentrations of 100 μM were introduced prior to adding PANa for a 4 h incubation. Following another 24 h culture period, cells were examined and photographed using an inverted microscope.

catalase (CAT) = assay: Catalase (CAT) activity in HepG2; format: cell-based
Experimental: (§1) After incubation, cells were treated with 100 μM of peptides for 4 h. After removing the media, PANa was added for 24 h of incubation. The levels of catalase (CAT), superoxide dismutase (SOD), glutathione peroxidase (GSH-Px), malondialdehyde (MDA), triacylglycerol (TG), total cholesterol (TCHO), low-density lipoprotein cholesterol (LDL-C), and high-density lipoprotein cholesterol (HDL-C) in the supernatant were determined according to the kit instructions.

[3] = tested on: glutathione peroxidase (GSH-Px); assay: Glutathione peroxidase (GSH-Px) activity in HepG2; format: cell-based
Experimental: as §1

malondialdehyde (MDA) = assay: Malondialdehyde (MDA) level in HepG2; format: cell-based
Experimental: as §1

Nrf2 = assay: Western blot Nrf2; format: cell-based; conditions: HepG2, Western blot
Experimental: (§2) After treatment, cells were washed with pre-chilled PBS and lysed with ice-cold lysis buffer for 30 min. The supernatant was collected after centrifugation at 12,000× g for 10 min and stored at −80 °C. Protein concentration was determined using a BCA protein assay kit. Equal amounts of protein (20–40 µg) were subjected to 10% sodium dodecyl sulfate-polyacrylamide gel electrophoresis (SDS-PAGE) and transferred to PVDF membranes (Polyvinylidene Fluoride, Merck, Darmstadt, Germany). Non-specific binding sites were blocked with 5% bovine serum albumin (BSA) solution at room temperature for 1 h, followed by incubation with the primary antibody at 4 °C overnight. After washing with TBST (3 times, 10 min/time), the membrane was incubated with the secondary antibody at room temperature for 1 h. Following further washing with TBST (3 times, 10 min/time), antibody signals were detected using a Western blot development system. The dilution ratios for the internal reference protein, vascular endothelial injury-related proteins, and oxidative stress-related pathway proteins were prepared according to the manufacturer’s instructions.

HO-1 = assay: Western blot HO-1; format: cell-based; conditions: HepG2, Western blot
Experimental: as §2

NQO1 = assay: Western blot NQO1; format: cell-based; conditions: HepG2, Western blot
Experimental: as §2

HepG2 cells [4] = assay: Oil Red O staining (fat accumulation); format: cell-based; conditions: 200×
Experimental: After incubation, the supernatants were discarded, and 2 mL of Oil Red O stationary solution was added to each well for 20–30 min. The stationary solution was subsequently washed away with 60% isopropyl alcohol. A freshly prepared Oil Red O staining solution was then applied for immersion dyeing lasting 10–20 min. After removing the staining solution with water, a Mayer hematoxylin staining solution was added for counterstaining the nucleus for 1–2 min before being discarded. An Oil Red O buffer solution was applied for 1 min and then discarded. […] The emission wavelength of fluorescence detection was 600 nm.

triacylglycerol (TG) = assay: Triacylglycerol (TG) level in HepG2; format: cell-based
Experimental: as §1

total cholesterol (TCHO) = assay: Total cholesterol (TCHO) level in HepG2; format: cell-based
Experimental: as §1

[5] = tested on: low-density lipoprotein cholesterol (LDL-C); assay: LDL-C level in HepG2; format: cell-based
Experimental: as §1

[6] = tested on: high-density lipoprotein cholesterol (HDL-C); assay: HDL-C level in HepG2; format: cell-based
Experimental: as §1

[7] = tested on: fatty acid synthase (FASN); assay: Western blot FASN; format: cell-based; conditions: HepG2, Western blot
Experimental: as §2

[8] = tested on: phosphorylated ACC1 (p-ACC1); assay: Western blot p-ACC1; format: cell-based; conditions: HepG2, Western blot
Experimental: as §2

[9] = tested on: Carnitine palmitoyl transferase 1 (CPT1); assay: Western blot CPT1; format: cell-based; conditions: HepG2, Western blot
Experimental: as §2

[10] = tested on: adipose triglyceride lipase (ATGL); assay: Western blot ATGL; format: cell-based; conditions: HepG2, Western blot
Experimental: as §2

p-AMPKα = assay: Western blot p-AMPKα; format: cell-based; conditions: 350 µM PANa 24 h, HepG2, Western blot
Experimental: as §2

HepG2 cells [11] = assay: CCK-8 proliferation of HepG2 with peptide alone; format: cell-based; conditions: concentrations below 200 µM, 24 h, CCK-8, n = 3
Experimental: HepG2 cells were cultured in DMEM supplemented with penicillin at a concentration of 100 U/mL, streptomycin at 100 μg/mL, and fetal bovine serum at a volume ratio of 10% under conditions of 37 °C and 5% CO2. A total of 2 ×10^4 cells per well were seeded into a 96-well plate for overnight culture. The upper layer of medium was carefully aspirated, and 200 μL of different concentrations of oligopeptide solution (50 μM, 100 μM, 200 μM) prepared with cell complete medium was added to each well. Twenty-four hours later, the proliferation rate of the cells was measured according to the instructions of the CCK-8 kit, and the appropriate concentration of oligopeptide was screened out.

HepG2 cells [12] = assay: Cell viability of PANa-induced HepG2 (CCK-8); format: cell-based; conditions: 100 μM peptide 4 h, then 350 µM PANa 24 h, **** p < 0.0001 vs PANa group
Experimental: A total of 2 × 10^4 cells/well were inoculated in 96-well plates for culture at 37 °C and 5% CO2. Following this period, the cells received treatment with 200 μL medium containing 100 μM LR-7, KA-8, or PG-7 for 4 h before adding 350 μM PANa to each well. After incubation for an additional 24 h, the cell proliferation rates were assessed using the CCK-8 assay protocols.

[13] = tested on: superoxide dismutase (SOD); assay: Superoxide dismutase (SOD) activity in HepG2; format: cell-based; conditions: 100 μM peptide 4 h, then 350 µM PANa 24 h
Experimental: as §1

HepG2 = assay: Lipid levels in HepG2 (TG, TCHO, LDL-C, HDL-C) overall; format: cell-based; conditions: 100 μM peptide 4 h, then 350 µM PANa 24 h
Experimental: as §1

[14] = tested on: proteins associated with lipid metabolism; assay: Western blot, proteins associated with lipid metabolism overall; format: cell-based; conditions: 100 μM peptide 4 h, then 350 µM PANa 24 h, HepG2, Western blot
Experimental: as §2

pancreatic lipase = assay: Pancreatic lipase activity inhibition; format: biochemical; conditions: compared with orlistat (positive control); 4-nitrophenyl palmitate substrate, lipase 1.2 mg/mL, peptide 100 μM, Tris-HCl pH 8.0, 37 °C, absorbance 405 nm, three parallel wells
Experimental: A working substrate solution consisting of 4-nitrophenyl palmitate dissolved in sodium acetate solution (containing 1% Triton-X 100, 100 mL, 5 mM, pH 5.0) was prepared. Enzyme powder was dissolved in Tris-HCl buffer (pH 8.0, 37 °C). This mixture was incubated at 4 °C for 2 h before centrifugation at 5000 r/min for 5 min, yielding the supernatant used to prepare a pancreatic lipase solution of 1.2 mg/mL. Orlistat at a concentration of 1 mg/mL in Tris-HCl buffer (pH 8.0; 37 °C) was prepared alongside DMSO to reach a concentration of 350 μg/mL peptide solution. The peptide solution of 100 μM was prepared with Tris-HCl buffer (pH = 8.0, 37 °C). The absorbance was measured at 405 nm, and the inhibition rate was measured in parallel with three holes due to the methodology of Franco et al..

hypertensive mice = conditions: earlier work, ref [22]; cited from earlier work
Excerpt: Harpadon nehereus, a nutrient-rich marine species indigenous to the Indo-Pacific region, remains underexploited despite its significant collagen content (18–22% wet weight). Harpadon nehereus serves as an economical source that is rich in protein and trace elements. Its proteins and derived peptides offer numerous health benefits including immune enhancement, blood pressure reduction, cardiovascular protection, and inflammation mitigation. In prior research, we successfully isolated three novel peptides LALFVPR (LR-7), KLHDEEVA (KA-8), and PSRILYG (PG-7) from the enzymatic hydrol ...

[15] = 350 µM PANa 24 h, HepG2, p < 0.001
[16] = 350 µM PANa 24 h, HepG2, p < 0.0001
[17] = 100 μM peptide 4 h, then 350 µM PANa 24 h, HepG2
[18] = 100 μM peptide 4 h, then 350 µM PANa 24 h, HepG2, p < 0.0001
[19] = 100 μM peptide 4 h, then 350 µM PANa 24 h
[20] = 100 μM peptide 4 h, then 350 µM PANa 24 h, vs PANa group, p < 0.0001
[21] = 100 μM peptide 4 h, then 350 µM PANa 24 h, vs PANa group

decrease in CAT activity vs Con group (catalase (CAT); [15]): more than 20% | decrease in GSH-Px activity vs Con group [3, 15]: more than 20%
Compound: CCCCCCCCCCCCCCCC(=O)[O-].[Na+] [PANa, Sodium palmitate]
cell viability (HepG2 cells [1]): 33.3% | cell morphology, PANa group (HepG2 cells [2]): appeared loose, with a marked decrease in cell count and showed signs of apoptosis | increase in MDA level vs Con group (malondialdehyde (MDA); [16]): 105% | Nrf2 protein expression, PANa vs Con group (Nrf2; 350 µM PANa 24 h): significant reduction | HO-1 protein expression, PANa vs Con group (HO-1; 350 µM PANa 24 h): significant reduction | NQO1 protein expression, PANa vs Con group (NQO1; 350 µM PANa 24 h): significant reduction | fat droplet formation and accumulation, PANa vs Con group (HepG2 cells [4]; 350 µM PANa 24 h): evident rise in fat droplet formation and accumulation | increase in TG level vs Con group (triacylglycerol (TG); [16]): 124.1% | increase in TCHO level vs Con group (total cholesterol (TCHO); [16]): 48.4% | increase in LDL-C level vs Con group [5, 16]: 58.3% | decrease in HDL-C level vs Con group [6, 15]: 51.7% | FASN expression, PANa vs Con group ([7]; 350 µM PANa 24 h): notable increase in FASN expression | p-ACC1 level, PANa vs Con group ([8]; 350 µM PANa 24 h, p < 0.01): significantly reduced | CPT1 expression, PANa vs Con group ([9]; 350 µM PANa 24 h, p < 0.05): markedly diminished | ATGL expression, PANa vs Con group ([10]; 350 µM PANa 24 h, p < 0.05): markedly diminished | phosphorylation of AMPKα, PANa group (p-AMPKα): attenuate the phosphorylation of AMPKα

CAT activity, reversal of PANa-induced reduction (catalase (CAT); [17]): effectively reversed the reduction | increase in CAT activity vs PANa group (catalase (CAT); [18]): over 100% | SOD activity, reversal of PANa-induced reduction [13]: effectively reversed the reduction | GSH-Px activity, reversal of PANa-induced reduction [3, 17]: effectively reversed the reduction | increase in GSH-Px activity vs PANa group [3, 18]: over 100%
Compound: LALFVPR [LR-7, peptide from Harpadon nehereus bone collagen enzymatic hydrolysates]
effect on apoptosis of HepG2 cells (HepG2 cells [11]): no effect on the apoptosis of HepG2 cells | cell viability of PANa-exposed HepG2 (HepG2 cells [12]): notably enhanced the cell viability | MDA level (malondialdehyde (MDA); [17]): decreased to values similar to those observed in the Con group; also recorded: significantly decreased the MDA levels | Nrf2 protein level (Nrf2; [19]): significant increases in the levels | HO-1 protein level (HO-1; [19]): significant increases in the levels | increase in HO-1 level (HO-1; [20]): 131.7% | NQO1 protein level (NQO1; [19]): significant increases in the levels | increase in NQO1 level (NQO1; [20]): 120% | fat accumulation relative to PANa group (HepG2 cells [4]; [19]): most significant reduction in fat accumulation | TG, effect on PANa-induced increase (triacylglycerol (TG); [17]): notably reversed the PANa-induced increases | TCHO, effect on PANa-induced increase (total cholesterol (TCHO); [17]): notably reversed the PANa-induced increases | LDL-C, effect on PANa-induced increase [5, 17]: notably reversed the PANa-induced increases | HDL-C, effect on PANa-induced decrease [6, 17]: notably reversed | lipid-lowering impact, ranking among the three peptides (HepG2): the most effective lipid-lowering impact | FASN expression vs PANa group [7, 19]: FASN expression decreased | reduction in FASN level [7, 21]: 59.6% | p-ACC1 level vs PANa group [8, 19]: p-ACC1 levels increased significantly | enhancement of p-ACC1 [8, 21]: 293.7% | enhancement of CPT1 level [9, 20]: 134.7% | enhancement of ATGL level [10, 20]: 148.1% | abnormal expression of proteins associated with lipid metabolism by PANa (FASN, ATGL, CPT1, p-AMPKα) [14]: significantly reversed | inhibition of pancreatic lipase activity (pancreatic lipase): superior inhibitory effects compared with orlistat | protection against cardiovascular injuries in hypertensive mice (hypertensive mice): protective qualities against cardiovascular injuries in hypertensive mice
